Data on one molecule can be found in patent publication US11549946B2, “Method for detecting cholangiocarcinoma cells” (National Tsing Hua University, priority 2019, dated 2023).

In experiment [1] the test system is white blood cells (WBCs). Briefly: On-bench capture test of WBCs using octasaccharide-coated beads. It counts as cell-based. To be noted: WBCs versus CCA cells (Huh28). As to the method: In order to determine whether SCH-45 and SCH-46 can be promising tools for use in clinical examination at an early stage or on the prognostic tracking of cancer, such as blood test, an on-bench capture test of WBCs using SCH-45 and SCH-46 of 100 μM-coated beads was performed in this example.
The whole blood used in this example was provided by National Cheng Kung University Hospital and stored at 4° C. (IRB number: A-ER-103-063 and A-ER-105-109). In order to achieve good efficiency in cancer cell capturing using octasaccharide-coated beads with the blood sample, whole blood was pretreated to remove blood cells, including red blood cells (RBCs) and white blood cells (WBCs). In other words, the whole blood pretreatment process contained a RBC lysis step and a WBC depletion step. […] Whole blood was inoculated with 10^5 Huh28 cells in a 1.5 mL Eppendorf tube. Then, on-bench RBC lysis was performed using a commercial RBC lysis buffer (Cat. 420301, BioLegend®, USA) diluted to 1× working concentration with DI water. The 100 μL of spiked sample was incubated with 1×RBC lysis buffer at a 1:10 volume/volume ratio on a wheeling rotor at 25 rpm, C2 mode for 5 mins, and then centrifuged at 1200 rpm for 5 mins to discard the supernatant. The pellets were washed twice and resuspended in 100 μL of 1× phosphate buffered saline (PBS) buffer. […]

In experiment [2] the test system is HepG2 (liver cancer). Briefly: Capture test of cell lines by octasaccharide-coated magnetic beads (traditional shaker). It counts as cell-based. To be noted: 30 mins. The text has this:
(§1) The cell lines utilized in this example were SNU478, HuCCT1, Huh28, KKU100, MMNK1, BxPC3, HepG2 and HCT8, SNU478, HuCCT1, Huh28, KKU100, and MMNK1 were supplied by Division of Surgery, National Cheng Kung University Hospital, Taiwan. BxPC3 and HepG2 were supplied by Dr. Kuang Hung Cheng, Institute of Biomedical Science, National Sun Yat-sen University, Taiwan. HCT8 was supplied by Professor Hwan-You Chang, Institute of Life Science, National Tsing Hua University, Taiwan. SNU478, HuCCT1, Huh28 and KKU100 were used as target cells for positive selection, which are CCA cell lines respectively derived from the ampulla of Vater, the intrahepatic-metastasized ascites, the intrahepatic bile duct and the opisthorchis viverrini-related hilar bile duct. For negative selection, MMNK1 (immortalized biliary epithelial), and various types of cancer cell lines, including BxPC3 (pancreatic cancer), HepG2 (liver cancer) and HCT8 (colorectal cancer) were used. Among these cell lines, SNU478, HuCCT1, Huh28, BxPC3 and HCT8 were identically cultured in Roswell Park Memorial Institute 1640 (RPMI 1640, Gibco®, Thermo Fisher Scientific, USA) containing 100 U/mL penicillin and 100 μg/mL streptomycin (Pen Strep, Gibco®, Thermo Fisher Scientific, USA), 10% fetal bovine serum (FBS, Gibco®, Thermo Fisher Scientific, USA). The growth medium for KKU100, MMNK-1 and HepG2 was Dulbecco's modified eagle medium (DMEM, Gibco®, Thermo Fisher Scientific, USA) complemented with the additives described above. All cells were cultured in a humidified incubator at 37° C. under an atmosphere containing 5% CO2.
(§2) In this example, the cells were captured by magnetic beads. The surface of magnetic beads was coated, respectively, with three concentrations of ten kinds of heparan sulfate (HS) octasaccharides, that is, from SCH-43 to SCH-52. The magnetic beads used in this example were Dynabeads® MyOne™ Streptavidin T1 (˜7-10×10^9 beads/mL, Ø=1 μm, Invitrogen, Thermo Fisher Scientific, USA). Briefly, each octasaccharide of 1 μM, 10 μM and 100 μM concentration were first incubated with magnetic beads in a volume/volume ratio of 1:10, and placed on the wheeling rotator (RM-2L INTELLI-mixer, ELMI Ltd., Latvia) at 25 rpm, C2 mode for 30 mins at room temperature. The beads were then collected using a magnetic particle concentrator (MPC, Dynabeads® MPC®-1, Life Technologies) for 2 mins, followed by discarding the supernatant and washing the coated beads three times with 1 mL of deionized (DI) water. Finally, the coated beads were suspended in the same volume of DI water as the initial volume of Dynabeads®.
(§3) In this example, the capture test for the eight cell lines mentioned above was performed with ten octasaccharides to determine their affinity. Therefore, by using the traditional shaker, 2×10^5 cells were incubated with three kinds of concentration (1 μM, 10 μM and 100 μM) of each octasaccharide for 30 mins. After the incubation, they were washed twice and the amount of captured cells was calculated by a hemocytometer under an inverted microscope. Through statistical analysis by ANOVA, the octasaccharides which bound to one cell line with high specificity was compared to other cell lines.

The test system of experiment [3] is HuCCT1 (CCA cell line). The description is as above. It counts as cell-based. To be noted: 30 mins.
Source text: as §1, §2, §3

For experiment [4], the system named is KKU100 (CCA cell line). The experiment is described as above. To be noted: 30 mins. It counts as cell-based.
Source text: as §1, §2, §3

For experiment [5], the system named is HCT8 (colorectal cancer). The description is as above. It counts as cell-based. The conditions noted are these: 30 mins.
Source text: as §1, §2, §3

Experiment [6] relates to MMNK1 (immortalized biliary epithelial). The description is as above. It counts as cell-based. To be noted: 30 mins.
Source text: as §1, §2, §3

In experiment [7] the test system is SNU478 (CCA cell line). The description is as above. The conditions noted are these: 30 mins. It counts as cell-based.
Source text: as §1, §2, §3

The subject of experiment [8] is BxPC3 (pancreatic cancer). The experiment is described as above. To be noted: 30 mins. It counts as cell-based.
Source text: as §1, §2, §3

Experiment [9] deals with Huh28 (CCA cell line). The experiment is described as above. It counts as cell-based, human. The conditions noted are these: 30 mins. The source says:
The cell lines utilized in this example were SNU478, HuCCT1, Huh28, KKU100, MMNK1, BxPC3, HepG2 and HCT8, SNU478, HuCCT1, Huh28, KKU100, and MMNK1 were supplied by Division of Surgery, National Cheng Kung University Hospital, Taiwan. BxPC3 and HepG2 were supplied by Dr. Kuang Hung Cheng, Institute of Biomedical Science, National Sun Yat-sen University, Taiwan. HCT8 was supplied by Professor Hwan-You Chang, Institute of Life Science, National Tsing Hua University, Taiwan. SNU478, HuCCT1, Huh28 and KKU100 were used as target cells for positive selection, which are CCA cell lines respectively derived from the ampulla of Vater, the intrahepatic-metastasized ascites, the intrahepatic bile duct and the opisthorchis viverrini-related hilar bile duct. For negative selection, MMNK1 (immortalized biliary epithelial), and various types of cancer cell lines, including BxPC3 (pancreatic cancer), HepG2 (liver cancer) and HCT8 (colorectal cancer) were used. […]
In this example, the capture test for the eight cell lines mentioned above was performed with ten octasaccharides to determine their affinity. […] After the incubation, they were washed twice and the amount of captured cells was calculated by a hemocytometer under an inverted microscope. […]

[10] abbreviates: beads coated with 1 μM octasaccharide.
The mark [11] stands for this setting: beads coated with 10 μM octasaccharide.
Setting [12] is: beads coated with 100 μM octasaccharide.

Regarding `O=C(CCCC[C@@H]1SC[C@@H]2NC(=O)N[C@@H]21)NCCCOCCOCCOCCOCCOCCOCCC(=O)NCCCCCO[C@@H]1O[C@H](C(=O)O)[C@@H](O[C@H]2O[C@H](COS(=O)(=O)O)[C@@H](O[C@@H]3O[C@@H](C(=O)O)[C@@H](O[C@H]4O[C@H](COS(=O)(=O)O)[C@@H](O[C@@H]5O[C@H](C(=O)O)[C@@H](O[C@H]6O[C@H](COS(=O)(=O)O)[C@@H](O[C@@H]7O[C@@H](C(=O)O)[C@@H](O[C@H]8O[C@H](COS(=O)(=O)O)[C@@H](O)[C@H](O)[C@H]8NS(=O)(=O)O)[C@H](O)[C@H]7OS(=O)(=O)O)[C@H](O)[C@H]6NS(=O)(=O)O)[C@H](O)[C@H]5OS(=O)(=O)O)[C@H](O)[C@H]4NS(=O)(=O)O)[C@H](O)[C@H]3OS(=O)(=O)O)[C@H](O)[C@H]2NS(=O)(=O)O)[C@H](O)[C@H]1OS(=O)(=O)O` [SCH-45], the “ratio of WBC capture rate to CCA” value in experiment [1] is reported as 5×10^−5. Moreover, the capture rate in experiment [2] (setting [10]) is 14 ± 1%; in experiment [2] (setting [11]), 11 ± 4%; in [2] (setting [12]), 9 ± 6%; in [3] (setting [10]), 5 ± 1%; in [3] (setting [11]), 5 ± 2%; in experiment [3] (setting [12]), 4 ± 2%. For the same molecule, the capture rate was 42 ± 3% in experiment [4] (setting [10]); 44 ± 2% in [4] (setting [11]); 41 ± 11% in experiment [4] (setting [12]); 16 ± 3% in experiment [5] (setting [10]); 13 ± 0% in experiment [5] (setting [11]); 9 ± 2% in [5] (setting [12]). The capture rate in experiment [6] (setting [10]) was 55 ± 7%; in experiment [6] (setting [11]), 47 ± 20%; in [6] (setting [12]), 16±8%; in experiment [7] (setting [10]), 20 ± 5%; in experiment [7] (setting [11]), 17 ± 7%; in experiment [7] (setting [12]), 16 ± 8%. Further, the capture rate in experiment [8] (setting [10]) is 16 ± 6%; in [8] (setting [11]), 11 ± 3%; in experiment [8] (setting [12]), 7 ± 3%; in experiment [9] (setting [10]), 66 ± 6%; in experiment [9] (setting [11]), 67 ± 3%.
